Experimental data taken from the supplement of paper PMC10307832.

Tests used:
Experiment in all cases: relative viability (nuclei count vs DMSO), 5 days (fraction); higher = more cells survive
[1] = compound: C[C@]12O[C@H](C[C@]1(O)CO)n1c3ccccc3c3c4c(c5c6ccccc6n2c5c31)CNC4=O [Lestaurtinib] + CC(=O)Nc1cccc(-n2c(=O)n(C3CC3)c(=O)c3c(Nc4ccc(I)cc4F)n(C)c(=O)c(C)c32)c1 [Trametinib] (partner 0.02 µM)
In short: (§1)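 Medians of duplicate plates are given as relative viability. That measure is the nuclei count in treated wells divided by the count in vehicle wells. Counts were taken on 4× images of lung cancer cell lines in 1536-well plates, 5 days after pin-tool dosing the day after seeding with one drug alone or a fixed anchor-drug dose plus five library-drug doses (not always all listed) in √10 steps.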

[2] = compound: C1/C(=C\C2=CC=CS2)/C(=O)/C(=C/C3=CC=CS3)/C1 + O=C(c1cc(Cc2n[nH]c(=O)c3ccccc23)ccc1F)N1CCN(C(=O)C2CC2)CC1 [Olaparib] (partner 8 µM)
In short: as §1

TPCA-1 + Pictilisib = compound: C1=CC(=CC=C1C2=CC(=C(S2)NC(=O)N)C(=O)N)F [TPCA-1] + CS(=O)(=O)N1CCN(Cc2cc3nc(-c4cccc5[nH]ncc45)nc(N4CCOCC4)c3s2)CC1 [Pictilisib] (partner 1 µM)
In short: as §1

TPCA-1 + Pemetrexed = compound: C1=CC(=CC=C1C2=CC(=C(S2)NC(=O)N)C(=O)N)F [TPCA-1] + Nc1nc2[nH]cc(CCc3ccc(C(=O)N[C@@H](CCC(=O)O)C(=O)O)cc3)c2c(=O)[nH]1 [Pemetrexed] (partner 0.2 µM)
In short: as §1

Cell Line | relative viability ([1]; first compound 0.005 µM) | relative viability ([1]; first compound 0.01581 µM) | relative viability ([1]; first compound 0.05 µM) | relative viability ([1]; first compound 0.1581 µM) | relative viability ([1]; first compound 0.5 µM) | relative viability ([2]; first compound 0.2 µM) | relative viability ([2]; first compound 0.6325 µM) | relative viability ([2]; first compound 2 µM) | relative viability ([2]; first compound 6.325 µM) | relative viability ([2]; first compound 20 µM) | relative viability (TPCA-1 + Pictilisib; first compound 0.04 µM) | relative viability (TPCA-1 + Pictilisib; first compound 0.1265 µM) | relative viability (TPCA-1 + Pictilisib; first compound 0.4 µM) | relative viability (TPCA-1 + Pictilisib; first compound 1.265 µM) | relative viability (TPCA-1 + Pictilisib; first compound 4 µM) | relative viability (TPCA-1 + Pemetrexed; first compound 0.04 µM) | relative viability (TPCA-1 + Pemetrexed; first compound 0.1265 µM) | relative viability (TPCA-1 + Pemetrexed; first compound 0.4 µM) | relative viability (TPCA-1 + Pemetrexed; first compound 1.265 µM) | relative viability (TPCA-1 + Pemetrexed; first compound 4 µM)
NCI-H647 | 0.478 | 0.41 | 0.22 | 0.29 | 0.169 | 0.776 | 0.482 | 0.433 | 0.501 | 0.573 | 0.494 | 0.283 | 0.42 | 0.236 | 0.217 | 0.177 | 0.172 | 0.183 | 0.163 | 0.182
LXF-289 | 0.66 | 0.691 | 0.494 | 0.467 | 0.159 | 1.06 | 1.07 | 1.06 | 0.936 | 1.02 | 0.836 | 0.698 | 0.797 | 0.735 | 0.499 | 0.883 | 0.869 | 0.903 | 0.877 | 0.535
LOU-NH91 | 0.759 | 0.749 | 0.679 | 0.625 | 0.548 | 0.943 | 0.899 | 0.915 | 0.872 | 0.928 | 0.527 | 0.438 | 0.563 | 0.507 | 0.469 | 0.399 | 0.376 | 0.389 | 0.392 | 0.532
NCI-H23 | 0.377 | 0.455 | 0.35 | 0.408 | 0.225 | 0.398 | 0.324 | 0.301 | 0.382 | 0.309 | 0.529 | 0.342 | 0.519 | 0.5 | 0.184 | 0.614 | 0.668 | 0.72 | 0.61 | 0.235
NCI-H1993 | 0.553 | 0.505 | 0.483 | 0.498 | 0.418 | 1.1 | 0.969 | 1.17 | 0.958 | 0.85 | 0.883 | – | 0.939 | 0.911 | 0.723 | 0.613 | 0.547 | 0.564 | 0.628 | 0.503
HCC-827 | 0.536 | 0.527 | 0.573 | 0.456 | 0.458 | 0.589 | 0.582 | 0.72 | 0.646 | 0.597 | 1.21 | 0.868 | 1.04 | 0.81 | 0.744 | 0.252 | 0.267 | 0.281 | 0.256 | 0.276
NCI-H650 | 0.88 | 1.03 | 0.886 | 0.522 | 0.34 | 0.575 | 0.425 | 0.376 | 0.378 | 0.423 | 0.928 | 0.864 | 1.03 | 0.538 | 0.787 | 0.952 | 0.916 | 0.994 | 0.631 | 0.809
CAL-12T | 0.364 | 0.337 | 0.314 | 0.288 | 0.23 | 0.691 | 0.749 | 0.742 | 0.648 | 0.733 | 0.283 | 0.438 | 0.507 | 0.224 | 0.162 | 1.12 | 0.968 | 1.17 | 1.09 | 0.828
